{
  "source": "patent US20190053489A1",
  "about": "“ANTIMICROBIAL COMPOSITION” (NATIONAL UNIVERSITY CORPORATION TOKYO MEDICAL AND DENTAL …, priority 2016, published 2019)",
  "key": {"pseudomonas aeruginosa": {"test_system": "pseudomonas aeruginosa", "assay": "Observation of morphological change in pseudomonas aeruginosa by electron microscope", "format": "cell-based", "procedure": "(§1) Next, the morphological change in MRSA was observed by using a transmission electron microscope. This observation with a transmission electron microscope was carried out as follows: the sample was sliced in 50 nm with a diamond knife as the pretreatment and was stained with uranium acetate and lead citrate, and a transmission electron microscope (JEM-1400 manufactured by JEOL Ltd.) was used. In addition, the samples were MRSA added with physiological saline and MRSA added with a lysozyme-chitosan complex with a concentration of 0.2% by mass.\nNote that the morphological change in the case of adding the lysozyme-chitosan complex to pseudomonas aeruginosa was also observed using a transmission electron microscope in the same manner as above. […] In other words, the lysozyme-chitosan complex also has a resistant microbe inactivation effect for pseudomonas aeruginosa.\n(§2) Observation was carried out with a scanning electron microscope for the morphological changes in MRSA and pseudomonas aeruginosa treated with the lysozyme-chitosan complex, lysozyme alone, chitosan alone, and the mixture of lysozyme and chitosan (treatment time: 2 hours). This observation with a scanning electron microscope was carried out in the same manner as Example 8 described above: osmium coating (4 nm) was performed as the conductive treatment, and a low-acceleration ultra-high resolution scanning electron microscope (SU 9000 manufactured by Hitachi High-Technologies Corporation (accelerating voltage: 1 kV)) was used. In addition, the samples were MRSA or pseudomonas aeruginosa added with physiological saline, a lysozyme-chitosan complex with a concentration of 0.1% by mass, lysozyme of 0.05% by mass, chitosan of 0.05% by mass, and a mixture of lysozyme and chitosan, each with 0.05% by mass."}, "MRSA": {"test_system": "MRSA", "assay": "Observation of morphological change in MRSA by electron microscope", "format": "cell-based, Methicillin-Resistant Staphylococcus Aureus (MRSA)", "procedure": "First, the morphological change in MRSA was observed by using a scanning electron microscope. This observation with a scanning electron microscope was carried out as follows: osmium coating (4 nm) was performed as the conductive treatment, and a low-acceleration ultra-high resolution scanning electron microscope (SU 9000 manufactured by Hitachi High-Technologies Corporation (accelerating voltage: 1 kV)) was used. In addition, the samples were MRSA added with physiological saline and MRSA added with a lysozyme-chitosan complex with a concentration of 0.2% by mass.\nas §1, §2"}, "MRSA IID 1677 [1]": {"test_system": "MRSA IID 1677", "assay": "Proliferation suppression against MRSA in a diluted medium (OD600)", "format": "cell-based, Methicillin-Resistant Staphylococcus Aureus (MRSA)", "settings": "diluted 1/2.5 LB medium, 37° C., OD 600 nm; complex 0.001%, lysozyme, chitosan and each of mixture 0.0005%; FIG. 1", "procedure": "This test employed MRSA IID 1677, and this microbe strain was cultured in a normal broth medium at 37° C. for 20 hours. The cultured microbial solution was collected by centrifugation (3000 rpm, 10 minutes), suspended with sterilized water, and then diluted with sterilized water so that the optical density would satisfy OD600=1.0. The resultant was diluted 2000 times (corresponding to 10^6 CFU/ml) to prepare a reaction microbial solution.\nEach of the LB test medium samples was added with 100 μl of reaction microbial solution and was shake cultured under the condition of 37° C. for 48 hours. Here, the LB test medium samples were prepared using 10 ml of 1/2.5 LB medium added with\n(1) 10 ml of sterilized water, (2) 10 ml of the lysozyme-chitosan complex with a concentration of 0.002% (the concentration after addition was 0.001%), (3) 10 ml of lysozyme alone with a concentration of 0.001% (the concentration after addition was 0.0005%), (4) 10 ml of chitosan alone with a concentration of 0.001% (the concentration after addition was 0.0005%), and (5) 10 ml of the mixture of lysozyme and chitosan with a concentration of 0.001% (the concentration of each after addition was 0.0005%).\nAfter that, 3 ml was extracted at time intervals (0, 1, and 2 days), and the optical density was measured at an absorption wavelength of 600 nm. […]"}, "[2]": {"test_system": "Pseudomonas aeruginosa PAO 1", "assay": "Proliferation suppression against pseudomonas aeruginosa PAO 1 in a standard medium (colony count method)", "format": "cell-based", "settings": "standard TSB medium; colony count 6 hours later; complex 0.2%, others 0.1%; FIG. 10", "description": "(§3) This test employed Pseudomonas aeruginosa NBRC 13275 or PAO 1, and other procedures were the same as those of [Example 5] described earlier.\n(§4) Note that the results of FIG. 9 are each the average value of the values obtained by carrying out the colony count method three times and that the results of FIG. 10 are each the average value of the values obtained by carrying out the colony count method five times."}, "[3]": {"test_system": "Pseudomonas aeruginosa NBRC 13275", "assay": "Proliferation suppression against pseudomonas aeruginosa NBRC 13275 in a standard medium (colony count method)", "format": "cell-based", "settings": "standard TSB medium; for ratio of the number of pseudomonas aeruginosa (NBRC 13275) colonies produced to the control: 6 hours later, FIG. 11", "description": "as §3, §4\nNote that the results of FIG. 11 are each the average value obtained with three replicate samples."}, "MRSA IID 1677 [4]": {"test_system": "MRSA IID 1677", "assay": "Proliferation suppression against MRSA in a standard medium (colony count method)", "format": "cell-based, Methicillin-Resistant Staphylococcus Aureus (MRSA)", "procedure": "This test employed MRSA IID 1677, and this microbe strain was inoculated in 20 ml of a normal broth medium (manufactured by Eiken Chemical Co., Ltd., ‘Eiken’) for overnight shake culture at 37° C. The cultured microbial solution was collected by centrifugation (3000 rpm, 10 minutes), suspended with sterilized water, and then diluted with sterilized water so that the optical density would satisfy OD600=1.0. The resultant was diluted 2000 times (corresponding to 10^6 CFU/ml) to prepare a reaction microbial solution.\nHere, the TSB test medium samples were prepared using 10 ml of TSB medium (BD BBL™) added with 200 μl of 1 M phosphate buffer (pH 7.0), followed by further addition of\n(1) 10 ml of sterilized water, ([…]), (3) 10 ml of lysozyme alone with a concentration of 0.2% (the concentration after addition was 0.1%), (4) 10 ml of chitosan alone with a concentration of 0.2% (the concentration after addition was 0.1%), and (5) 10 ml of the mixture of lysozyme and chitosan with a concentration of 0.2% (the concentration of each after addition was 0.1%).\nAfter that, 100 μl was extracted and seeded on the MH agar medium, and the number of colonies produced was observed (colony count method). […] Note that the results of FIG. 7 are each the average value of the values obtained by carrying out the colony count method three times.\nNote that the results of FIG. 8 are each the average value obtained with two replicate samples."}},
  "data": [
    {"substance": "lysozyme-chitosan complex: complex of lysozyme and water-soluble chitosan (molecular weight 14000 Da) bound to each other through the Maillard reaction", "values": [
      {"measurement": "morphological change in pseudomonas aeruginosa, transmission electron microscope", "setting": "pseudomonas aeruginosa; FIG. 15", "result": "destroys the cell walls of pseudomonas aeruginosa"},
      {"measurement": "morphological change in pseudomonas aeruginosa, scanning electron microscope, treatment time 2 hours", "setting": "pseudomonas aeruginosa; complex 0.1% by mass, lysozyme 0.05%, chitosan 0.05%, mixture each 0.05%, FIG. 17", "result": "changed to a large extent"},
      {"measurement": "morphological change in MRSA, scanning electron microscope, treatment time 2 hours", "setting": "MRSA; complex 0.1% by mass, lysozyme 0.05%, chitosan 0.05%, mixture each 0.05%, FIG. 16", "result": "the form of MRSA has changed"},
      {"measurement": "morphological change in MRSA, scanning electron microscope", "setting": "MRSA; complex 0.2% by mass, FIG. 13", "result": "fibrous adhesions have appeared on the outer surface of MRSA"},
      {"measurement": "morphological change in MRSA, transmission electron microscope", "setting": "MRSA; complex 0.2% by mass, FIG. 14", "result": "fibrous structures (DNA) inside MRSA have disappeared"},
      {"measurement": "proliferation suppression effect against MRSA for 48 hours", "setting": "MRSA IID 1677 [1]", "result": "marked improvement effect compared to lysozyme alone and the mixture of lysozyme and chitosan"},
      {"measurement": "proliferation suppression effect against PAO 1", "setting": "[2]", "result": "marked improvement effect compared to lysozyme alone, chitosan alone, and the mixture of lysozyme and chitosan"},
      {"measurement": "proliferation suppression effect against NBRC 13275", "setting": "[3]; colony count 6 hours later, complex 0.2%, others 0.1%, FIG. 9", "result": "marked improvement effect compared to lysozyme alone, chitosan alone, and the mixture of lysozyme and chitosan"},
      {"measurement": "ratio of the number of pseudomonas aeruginosa (NBRC 13275) colonies produced to the control", "setting": "[3]; complex 0.2%", "result": "~0", "unit": "%"},
      {"measurement": "ratio of the number of pseudomonas aeruginosa (NBRC 13275) colonies produced to the control", "setting": "[3]; complex 0.5%", "result": "~0", "unit": "%"},
      {"measurement": "proliferation suppression effect against MRSA (ratio of colonies produced 6 hours later to control)", "setting": "MRSA IID 1677 [4]; standard TSB medium with phosphate buffer pH 7.0, complex 0.2%, lysozyme, chitosan, each of mixture 0.1%, FIG. 7", "result": "marked improvement effect compared to chitosan alone and the mixture of lysozyme and chitosan"},
      {"measurement": "proliferation suppression effect against MRSA 9 hours later", "setting": "MRSA IID 1677 [4]; standard TSB medium, any of the complex concentrations 0.01%, 0.05%, 0.1%, 0.2%, FIG. 8", "result": "sufficient proliferation suppression effect"},
      {"measurement": "ratio of the number of MRSA colonies produced to the control", "setting": "MRSA IID 1677 [4]; standard TSB medium, complex 0.2%, past 6 hours, FIG. 8", "result": "~0", "unit": "%"}
    ]}
  ]
}
